For series [1] the following is noted: Crystal.
The nature of series [2]: molar enthalpy of vaporization or sublimation. The conditions noted are these: Crystal.
Series [3] can be described thus: Molar enthalpy of transition or fusion. The conditions noted are these: Crystal.

Structures are written as SMILES. ± gives the expanded uncertainty stated by the source.

The record followed here is the NIST ThermoML archive (doi:10.1016/j.jct.2004.03.002).

For `CC1=C(C)C(=O)C(C)=C(C)C1=O` [1,4-benzoquinone, tetramethyl-], the Triple point temperature amounted to 384.12 ± 0.64 K in series [1] (DTA) and 384.84 ± 0.09 K in series [1] (heat flux calorimetry). The molar enthalpy stood at 22.3 ± 0.765 kcal/mol in series [2] (297.3 K), 21.9 ± 0.765 kcal/mol in series [2] (297.4 K) and 22.3 ± 1.05 kcal/mol in series [2] (298.15 K). Also, the “Molar enthalpy of transition or fusion” value in series [3] (DSC) turned out to be 4.4 ± 0.105 kcal/mol; in series [3] (heat flux calorimetry) it was 4.431 ± 0.0382 kcal/mol.
With `O=C1C=CC(=O)C=C1` [1,4-benzoquinone], the Triple point temperature in series [1] (DTA) was found to be 385.07 ± 0.68 K; in series [1] (heat flux calorimetry), 385.65 ± 0.24 K. Besides, the molar enthalpy in series [2] (277.3 K) stood at 15.4 ± 0.598 kcal/mol; in series [2] (278.2 K), 15.1 ± 0.598 kcal/mol; in series [2] (279.2 K), 14.9 ± 0.598 kcal/mol; in series [2] (298.15 K), 15.9 ± 0.884 kcal/mol. Besides, the “Molar enthalpy of transition or fusion” value in series [3] (DSC) turned out to be 4.4 ± 0.108 kcal/mol; in series [3] (heat flux calorimetry) it was 4.39 ± 0.174 kcal/mol.
